Read-outs that look alike come from different tables or passages of the source.
Experiments:
[1] = system: acute lymphoblastic leukemia xenograft; settings: in vivo; cited from earlier work
[2] = system: human tumor xenograft models; settings: cited from earlier work
mTOR = mTOR (Homo sapiens, UniProt P42345); settings: read-out: mTOR IC50; literature; mTOR complexes / mTOR enzymes; cited from earlier work
[3] = single- and repeat-dosing; cited from earlier work
human TOR (FLAG-TOR) = human TOR (FLAG-TOR) (Homo sapiens, UniProt P42345); assay: mTOR enzyme assay (DELFIA format, purified enzyme); type: biochemical; settings: 800 ng/ml FLAG-TOR, 100 μM ATP, 1.25 μM His6-S6K; read-out: mTOR Kinase IC50
PI3Kα = PI3Kα (Homo sapiens, UniProt P42336); assay: PI3Kα fluorescence polarization assay; type: biochemical; settings: 20 μM PIP2, 25 μM ATP
Chain of PI3Kα (P42336 whole entry, species assumed): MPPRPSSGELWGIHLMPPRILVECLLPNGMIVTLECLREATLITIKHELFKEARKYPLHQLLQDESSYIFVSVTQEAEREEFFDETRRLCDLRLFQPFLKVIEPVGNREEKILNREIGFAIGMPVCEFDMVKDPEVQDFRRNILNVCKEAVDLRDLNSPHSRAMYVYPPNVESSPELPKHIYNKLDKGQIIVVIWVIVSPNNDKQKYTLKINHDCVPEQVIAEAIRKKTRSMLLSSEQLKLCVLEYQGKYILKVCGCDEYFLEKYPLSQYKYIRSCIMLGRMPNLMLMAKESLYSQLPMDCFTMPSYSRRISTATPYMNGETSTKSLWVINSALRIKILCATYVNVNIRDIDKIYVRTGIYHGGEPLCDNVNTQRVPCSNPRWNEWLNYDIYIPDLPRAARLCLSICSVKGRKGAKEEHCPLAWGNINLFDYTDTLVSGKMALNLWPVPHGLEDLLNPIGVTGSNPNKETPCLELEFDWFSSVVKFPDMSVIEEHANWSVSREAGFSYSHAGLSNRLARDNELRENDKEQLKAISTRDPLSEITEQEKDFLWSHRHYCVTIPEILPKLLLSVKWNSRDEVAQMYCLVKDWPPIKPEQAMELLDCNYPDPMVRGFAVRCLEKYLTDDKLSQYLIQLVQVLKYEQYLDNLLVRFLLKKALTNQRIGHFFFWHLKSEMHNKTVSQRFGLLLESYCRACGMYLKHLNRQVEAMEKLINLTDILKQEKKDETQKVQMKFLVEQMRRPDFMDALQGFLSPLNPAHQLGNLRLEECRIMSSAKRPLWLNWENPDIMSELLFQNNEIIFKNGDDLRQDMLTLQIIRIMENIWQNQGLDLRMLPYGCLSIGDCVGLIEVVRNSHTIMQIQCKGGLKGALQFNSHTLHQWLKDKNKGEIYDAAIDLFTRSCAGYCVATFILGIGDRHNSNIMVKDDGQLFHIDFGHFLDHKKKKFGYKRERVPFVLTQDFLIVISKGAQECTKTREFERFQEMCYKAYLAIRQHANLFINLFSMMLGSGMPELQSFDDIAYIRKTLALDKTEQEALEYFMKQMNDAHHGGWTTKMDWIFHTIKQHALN
Chain of PI3Kα (P27986 whole entry partner, species assumed): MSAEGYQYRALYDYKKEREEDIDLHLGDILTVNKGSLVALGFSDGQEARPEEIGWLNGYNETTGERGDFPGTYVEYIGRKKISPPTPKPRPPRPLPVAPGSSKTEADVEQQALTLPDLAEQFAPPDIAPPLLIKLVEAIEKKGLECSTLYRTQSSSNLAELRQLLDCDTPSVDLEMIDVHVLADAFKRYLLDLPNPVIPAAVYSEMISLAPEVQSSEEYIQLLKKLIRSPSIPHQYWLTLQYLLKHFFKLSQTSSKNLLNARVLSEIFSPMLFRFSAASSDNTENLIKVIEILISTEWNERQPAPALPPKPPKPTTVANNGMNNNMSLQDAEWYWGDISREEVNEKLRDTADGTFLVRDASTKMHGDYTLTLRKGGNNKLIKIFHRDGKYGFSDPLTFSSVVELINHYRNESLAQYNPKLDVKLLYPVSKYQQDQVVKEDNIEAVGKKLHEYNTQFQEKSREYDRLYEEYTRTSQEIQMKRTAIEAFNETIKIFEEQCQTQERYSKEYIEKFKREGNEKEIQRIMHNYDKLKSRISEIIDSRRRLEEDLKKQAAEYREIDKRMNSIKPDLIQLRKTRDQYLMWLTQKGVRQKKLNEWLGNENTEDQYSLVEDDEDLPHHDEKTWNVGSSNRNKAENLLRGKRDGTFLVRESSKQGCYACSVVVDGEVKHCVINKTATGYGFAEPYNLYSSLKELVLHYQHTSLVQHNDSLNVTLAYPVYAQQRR
Procedure, shortened: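 Kinase reaction in 20 mM HEPES pH 7.5, 2 mM MgCl2, 0.05% CHAPS with final 20 μM diC8-PIP2 and 25 μM ATP, 30-60 min at room temperature. Stopped with 10 nM TAMRA-labelled probe plus 2.5 uM GST-murine GRP; fluorescence polarization read after 90-110 minutes.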

[4] = system: LNCap prostate tumor cells; assay: In vitro cell growth assay (MTS), LNCap; type: cell-based, human; settings: Homo sapiens, LNCaP, 72 h, three days after drug treatment
Procedure, shortened: (§1)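 Tumor cells plated ~3000/well; inhibitors in DMSO added one day later (final DMSO 0.25%). After three days of treatment, viable cell density read by MTS conversion, absorbance at 490 nm. Effect expressed relative to untreated control growth.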

[5] = system: MDA468 breast tumor cells; assay: In vitro cell growth assay (MTS), MDA468; type: cell-based, human; settings: Homo sapiens, 72 h, three days after drug treatment
Procedure, shortened: as §1

## CO[C@H]1C[C@@H]2CC[C@@H](C)[C@@](O)(O2)C(=O)C(=O)N2CCCC[C@H]2C(=O)O[C@H]([C@H](C)C[C@@H]2CC[C@@H](OC(=O)C(C)(CO)CO)[C@H](OC)C2)CC(=O)[C@H](C)/C=C(\C)[C@@H](O)[C@@H](OC)C(=O)[C@H](C)C[C@H](C)/C=C/C=C/C=C/1C [Torisel]
[1]
  activity in NOS/SCID xenograft mouse model of acute lymphoblastic leukemia: active

## FC(F)c1nc2ccccc2n1-c1nc(N2CCOCC2)nc(N2CCOCC2)n1 [ZSTK474, 2-(2-difluoromethylbenzoimidazol-1-yl)-4,6-dimorpholino-1,3,5-triazine]
[2]; chronic oral administration, 400 mg/kg, A549, PC-3, WiDr
  tumor growth in mouse human xenograft cancer models: completely inhibited growth
mTOR
  IC50: > 10 µM

## CN1CCN(c2cccc(Oc3cc(=O)[nH]c4ccccc34)c2)CC1 [Example 140, 4-[3-(4-methylpiperazin-1-yl)phenoxy]quinolin-2(1H)-one]
other
  melting point: 218 to 221 °C

## O=C1NC(=O)/C(=C/c2ccc3nccc(-c4ccncc4)c3c2)S1 [GSK-1059615]
[3]
  exposure in phase 1 clinical study: lack of sufficient exposure

## Cn1c(=O)n(-c2ccc(C(C)(C)C#N)cc2)c2c3cc(-c4cnc5ccccc5c4)ccc3ncc21 [NVP-BEZ-235, 2-methyl-2-(4-(3-methyl-2-oxo-8-(quinolin-3-yl)-2,3-dihydro-1H-imidazo[4,5-c]quinolin-1-yl)phenyl)propanenitrile]
[2]; prostrate (PC-3) and glioblastoma (U-87)
  activity in human tumor xenograft models: demonstrated activity

## Oc1cccc(-c2nc(N3CCOCC3)c3oc4ncccc4c3n2)c1 [PI103, 3-(4-(4-morpholinyl)pyrido[3′,2′:4,5]furo[3,2-d]pyrimidin-2-yl)phenol]
[2]; I.P. dosing in mice, U87MG, PC3, MDA-MB-468, MDA-MB-435, HCT 116, SKOV3, IGROV-1
  activity in human tumor xenograft models: demonstrated activity

## CN(Cc1cccnc1)c1cccc(Oc2cc(=O)[nH]c3ccccc23)c1 [Example 161, 4-{3-[methyl(pyridin-3-ylmethyl)amino]phenoxy}quinolin-2(1H)-one]
other
  melting point: 187 to 193 °C (dec.)

## O=c1cc(Oc2ccccn2)c2ccccc2[nH]1 [Example 137, 4-(pyridin-2-yloxy)quinolin-2(1H)-one]
other
  melting point: > 360 °C

## O=c1cc(Oc2cccnc2)c2ccccc2[nH]1 [Example 119, 4-(pyridin-3-yloxy)quinolin-2(1H)-one]
other
  melting point: 242 to 243 °C

## CN(C)CCCOc1ccc(-c2ccc(Oc3cc(=O)[nH]c4ccccc34)cc2)cn1
Human TOR (FLAG-TOR)
  IC50: 0.82 µM
PI3Kα
  IC50: > 10 µM
[4]
  IC50: 2.1 µM
[5]
  IC50: 3.9 µM

## CCN1CCCC(Nc2ccc(-c3cccc(Oc4cc(=O)[nH]c5ccccc45)c3)cc2)C1 (centres unmarked)
Human TOR (FLAG-TOR)
  IC50: 0.31 µM
PI3Kα
  IC50: 8 µM
[4]
  IC50: 3.9 µM
[5]
  IC50: 10 µM

## O=c1cc(Oc2cccc(-c3ccc(NC4CCNCC4)cc3)c2)c2ccccc2[nH]1
Human TOR (FLAG-TOR)
  IC50: 0.09 µM
PI3Kα
  IC50: > 10 µM
[4]
  IC50: 2.3 µM
[5]
  IC50: 3.8 µM

## O=c1cc(Oc2cccc(OCc3ccccc3)c2)c2ccccc2[nH]1 [Example 57, 4-[3-(benzyloxy)phenoxy]quinolin-2(1H)-one]
other
  melting point: 262 to 265 °C

## O=c1cc(Oc2ccccc2)c2cc(-c3cccnc3)ccc2[nH]1
Human TOR (FLAG-TOR)
  IC50: 8.5 µM
PI3Kα
  IC50: 7.44 µM
[4]
  IC50: > 60 µM
[5]
  IC50: > 60 µM

## O=c1cc(Oc2cccc(-c3ccc(N4CCOCC4)nc3)c2)c2ccccc2[nH]1
Human TOR (FLAG-TOR)
  IC50: 0.2 µM
PI3Kα
  IC50: > 10 µM
[4]
  IC50: 12 µM
[5]
  IC50: > 60 µM

## NCc1ccc(Oc2cc(=O)[nH]c3ccccc23)cc1
Human TOR (FLAG-TOR)
  IC50: 3.95 µM
PI3Kα
  IC50: > 10 µM
[4]
  IC50: 12 µM
[5]
  IC50: 35 µM

## CN(C)CCNC(=O)Nc1ccc(-c2cccc(Oc3cc(=O)[nH]c4ccccc34)c2)cc1
Human TOR (FLAG-TOR)
  IC50: 0.1 µM
PI3Kα
  IC50: > 10 µM
[4]
  IC50: 7 µM
[5]
  IC50: 9 µM

## N#Cc1ccc(Oc2cc(=O)[nH]c3ccccc23)cc1
Human TOR (FLAG-TOR)
  IC50: 7.6 µM
PI3Kα
  IC50: 2.09 µM
[4]
  IC50: 5.5 µM
[5]
  IC50: 48 µM

## O=c1cc(Oc2cccc(-c3cccc(CN4CCOCC4)c3)c2)c2ccccc2[nH]1
Human TOR (FLAG-TOR)
  IC50: 0.6 µM
PI3Kα
  IC50: 6.83 µM
[4]
  IC50: 9.5 µM
[5]
  IC50: 30 µM

## O=c1cc(Oc2cccc(-c3ccc4[nH]ccc4c3)c2)c2ccccc2[nH]1
Human TOR (FLAG-TOR)
  IC50: 0.47 µM
PI3Kα
  IC50: > 10 µM
[4]
  IC50: 12 µM
[5]
  IC50: 23 µM

## CC(=O)c1ccc(Oc2cc(=O)[nH]c3ccccc23)cc1
Human TOR (FLAG-TOR)
  IC50: 1.85 µM
PI3Kα
  IC50: 1.66 µM
[4]
  IC50: 13 µM
[5]
  IC50: > 60 µM

## O=c1cc(Oc2cccc(-c3ccc(NC4CCN(Cc5ccccn5)CC4)cc3)c2)c2ccccc2[nH]1
Human TOR (FLAG-TOR)
  IC50: 0.11 µM
PI3Kα
  IC50: > 10 µM
[4]
  IC50: 5.2 µM
[5]
  IC50: 11 µM

— patent US20100068204A1, “4-ARYLOXYQUINOLIN-2(1H)-ONES AS MTOR KINASE AND PI3 KINASE INHIBITORS, FOR USE AS ANTI-CANCER AGENTS” (Wyeth, priority 2008, published 2010)
